{
  "source": "ChEMBL document CHEMBL1201862",
  "about": "“PubChem BioAssay data set” (2004)",
  "key": {"[1]": {"molecular_target": "FAD-linked sulfhydryl oxidase ALR (Homo sapiens, UniProt P55789)", "sequence (P55789 whole entry)": "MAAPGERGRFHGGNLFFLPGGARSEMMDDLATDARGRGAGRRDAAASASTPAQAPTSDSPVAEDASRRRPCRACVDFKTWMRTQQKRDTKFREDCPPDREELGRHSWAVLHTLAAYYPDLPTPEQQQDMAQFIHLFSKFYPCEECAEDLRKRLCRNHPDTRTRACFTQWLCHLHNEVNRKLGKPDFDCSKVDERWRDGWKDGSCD", "assay": "inhibitors of human ALR sulfhydryl oxidase, dose response, biochemical, H2O2 detection, luminescence, cherry-pick (AID 493248)"}, "[2]": {"assay": "C. albicans growth with fluconazole, confirmation, fluorescence, retest (AID 2467)", "format": "functional, cell-based"}, "[3]": {"assay": "NIH-3T3 fibroblast cytotoxicity, dose response, cytotoxicity control, cell-based, fluorescence, Alamar Blue, secondary assay (AID 2327);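 note: NIH-3T3 mouse fibroblasts cultured with fluconazole at 8 µg/mL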", "format": "functional"}, "[4]": {"molecular_target": "T1, Corticotropin-releasing factor receptor 2/Corticotropin-releasing factor-binding protein (Homo sapiens, UniProt P24387+Q13324)", "T1 sequence (Q13324 whole entry)": "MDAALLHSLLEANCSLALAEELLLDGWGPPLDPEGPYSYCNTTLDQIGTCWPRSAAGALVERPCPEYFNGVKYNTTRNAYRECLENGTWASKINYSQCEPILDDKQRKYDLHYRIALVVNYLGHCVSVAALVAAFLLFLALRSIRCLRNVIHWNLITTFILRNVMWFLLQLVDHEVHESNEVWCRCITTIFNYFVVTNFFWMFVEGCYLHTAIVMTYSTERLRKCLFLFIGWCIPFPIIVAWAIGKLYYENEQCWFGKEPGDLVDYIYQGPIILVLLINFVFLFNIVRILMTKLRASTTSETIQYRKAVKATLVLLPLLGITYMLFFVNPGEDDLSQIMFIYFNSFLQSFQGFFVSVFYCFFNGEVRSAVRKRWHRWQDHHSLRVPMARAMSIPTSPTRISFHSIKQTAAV", "T1 sequence (P24387 whole entry)": "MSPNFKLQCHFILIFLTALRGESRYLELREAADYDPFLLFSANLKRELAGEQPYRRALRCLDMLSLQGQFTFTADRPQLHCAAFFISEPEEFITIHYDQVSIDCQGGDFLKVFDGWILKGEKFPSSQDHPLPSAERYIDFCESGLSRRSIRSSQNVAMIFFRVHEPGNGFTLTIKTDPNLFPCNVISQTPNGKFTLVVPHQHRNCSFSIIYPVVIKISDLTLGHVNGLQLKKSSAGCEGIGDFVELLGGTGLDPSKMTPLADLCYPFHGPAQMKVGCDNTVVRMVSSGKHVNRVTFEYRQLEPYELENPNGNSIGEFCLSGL", "assay": "activators of CRF receptor 2 with binding protein – uHTS hits, confirmation (AID 602473)", "format": "functional", "conditions": "read-out: EC50_Mean"}, "[5]": {"molecular_target": "T1, Corticotropin-releasing factor receptor 2/Corticotropin-releasing factor-binding protein", "assay": "Dose Response confirmation of uHTS hits for small molecule antagonists of the CRF-binding protein and CRF-R2 receptor complex.", "format": "functional", "conditions": "read-out: IC50_Mean"}, "[6]": {"system": "Streptococcus sp. 'group A'", "assay": "growth inhibition of control SK(-) GAS strain, dose response, counter-screen for streptokinase expression inhibitor project, luminescence, kanamycin, BacTiterGlo, confirmation (AID 1900)", "format": "functional, organism-based"}, "Streptococcus": {"system": "Streptococcus", "assay": "Group A Streptococcus viability loss, dose response, counter-screen for streptokinase expression inhibitor project, luminescence, BacTiterGlo (AID 1915);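 note: potency for reduction of bacterial viability or growth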", "format": "functional, organism-based"}, "Streptokinase A": {"molecular_target": "T2, Streptokinase A (Streptococcus pyogenes serotype M1, UniProt P10520)", "T2 sequence (P10520 whole entry)": "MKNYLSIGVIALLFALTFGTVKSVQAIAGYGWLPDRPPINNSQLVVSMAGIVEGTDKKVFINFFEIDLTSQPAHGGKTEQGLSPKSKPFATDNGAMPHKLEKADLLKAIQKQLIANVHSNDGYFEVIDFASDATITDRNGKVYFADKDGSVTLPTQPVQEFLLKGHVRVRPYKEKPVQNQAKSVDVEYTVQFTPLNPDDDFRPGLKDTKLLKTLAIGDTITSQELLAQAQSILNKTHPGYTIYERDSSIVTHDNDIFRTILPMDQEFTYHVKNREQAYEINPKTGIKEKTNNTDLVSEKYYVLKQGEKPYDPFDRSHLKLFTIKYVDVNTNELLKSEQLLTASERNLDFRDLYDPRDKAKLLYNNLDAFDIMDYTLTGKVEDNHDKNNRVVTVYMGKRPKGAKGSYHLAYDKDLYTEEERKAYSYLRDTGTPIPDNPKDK", "assay": "S. pyogenes streptokinase expression inhibitors, potency, dose response, plasminogen activation absorbance, OD405 (AID 1914);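 note: secreted streptokinase activity via plasminogen activation per viability signal from cell pellet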", "format": "functional, Streptococcus pyogenes M1 GAS"}, "[7]": {"assay": "Luminescence Cell-Based Dose Response HTS to Identify Activators of Luciferase Translation or Activity in H4 […] Cells. [Related pubchem assays: 1829 (Project Summary), 1814 (Primary HTS)]", "format": "functional"}, "[8]": {"assay": "Luminescence Cell-Based Dose Confirmation HTS to Identify Activators of 5'UTR Stem-Loop Driven Alpha-Synuclein mRNA Translation in H4 Neuroglioblastoma Cells. [Related pubchem assays: 1829 (Project Summary), 1814 (Primary HTS)]", "format": "functional"}, "H4": {"system": "H4", "assay": "Luminescence Cell-Based Dose Response HTS to Identify Activators of 5'UTR Stem-Loop Driven Prion Protein mRNA Translation in H4 Neuroglioblastoma Cells. [Related pubchem assays: 1829 (Project Summary), 1814 (Primary HTS)]", "format": "functional", "conditions": "Homo sapiens"}, "cells": {"assay": "cells", "format": "functional"}, "Cytochrome P450 2C19": {"molecular_target": "Cytochrome P450 2C19 (Homo sapiens, UniProt P33261)", "sequence (P33261 whole entry)": "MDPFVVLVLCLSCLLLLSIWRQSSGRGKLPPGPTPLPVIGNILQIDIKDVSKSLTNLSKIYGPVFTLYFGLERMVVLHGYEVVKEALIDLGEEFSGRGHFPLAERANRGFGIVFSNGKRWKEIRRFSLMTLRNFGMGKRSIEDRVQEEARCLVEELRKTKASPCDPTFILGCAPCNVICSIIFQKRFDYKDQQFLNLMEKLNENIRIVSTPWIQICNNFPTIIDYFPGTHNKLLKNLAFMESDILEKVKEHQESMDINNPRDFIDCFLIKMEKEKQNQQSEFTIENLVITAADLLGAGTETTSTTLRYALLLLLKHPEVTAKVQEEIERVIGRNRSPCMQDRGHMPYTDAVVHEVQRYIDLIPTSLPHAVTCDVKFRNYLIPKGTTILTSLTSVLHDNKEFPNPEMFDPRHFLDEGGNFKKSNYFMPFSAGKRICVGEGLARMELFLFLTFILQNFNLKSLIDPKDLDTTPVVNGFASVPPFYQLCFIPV", "assay": "Cytochrome panel assay with activity outcomes. Panel member name: p450-cyp2c19 Compounds with AC50 equal or less than 10 uM are considered active", "format": "functional"}},
  "note": "Activity calls are given as the source filed them.",
  "data": [
    {"smiles": "Cc1ccc(-n2c(-c3ccc(Cl)cc3)n[nH]c2=S)c(C)c1", "values": [
      {"measurement": "AC50", "setting": "[1]", "value": "2.08 µM (active)"}
    ]},
    {"smiles": "CC(=O)NCCc1c(C)n(Cc2ccccc2)c2ccccc12", "values": [
      {"measurement": "AC50", "setting": "[1]", "value": "3.02 µM (active)"}
    ]},
    {"smiles": "O=C(NC1CCCCC1)C(c1ccc2ncccc2c1)N(Cc1ccc(F)cc1)C(=O)c1ccc2c(c1)OCCO2", "note": "(stereo unspecified)", "values": [
      {"measurement": "EC50", "setting": "[2]", "value": "> 38 µM (not active)"},
      {"measurement": "EC50", "setting": "[3]", "value": "> 150 µM (inconclusive)"}
    ]},
    {"smiles": "COc1ccccc1N1CCN(CC(=O)Nc2c(C)n[nH]c2C)CC1", "values": [
      {"measurement": "EC50", "setting": "[4]", "value": "> 53 µM (inactive)"},
      {"measurement": "IC50", "setting": "[5]", "value": "> 47.1 µM (inactive)"}
    ]},
    {"smiles": "O=C(NC(=S)Nc1ccc(Cl)cn1)C(c1ccccc1)c1ccccc1", "values": [
      {"measurement": "EC50", "setting": "[6]", "value": "3.85 µM (active)"},
      {"measurement": "EC50", "setting": "Streptococcus", "value": "6.57 µM (active)"},
      {"measurement": "EC50", "setting": "Streptokinase A", "value": "> 150 µM (not active)"}
    ]},
    {"smiles": "Cc1cc(C(=O)CSc2nnc(-c3cccnc3)n2-c2ccccc2)c(C)n1CC1CCCO1", "note": "(stereo unspecified)", "values": [
      {"measurement": "EC50", "setting": "[7]", "value": "18.7 µM (active)"},
      {"measurement": "EC50", "setting": "[8]", "value": "8.04 µM (active)"},
      {"measurement": "EC50", "setting": "H4", "value": "> 60 µM (not active)"}
    ]},
    {"smiles": "N#Cc1ccc(-c2nc3cc(Cl)ccc3c(=O)n2O)cc1", "values": [
      {"measurement": "EC50", "setting": "[2]", "value": "1.63 µM (active)"},
      {"measurement": "EC50", "setting": "[3]", "value": "> 160 µM (inconclusive)"}
    ]},
    {"smiles": "COC(=O)COc1ccc2c(-c3cccc([N+](=O)[O-])c3)cc(=O)oc2c1", "values": [
      {"measurement": "IC50", "setting": "cells", "value": "2.9 µM (active)"},
      {"measurement": "AC50", "setting": "Cytochrome P450 2C19", "value": "0.251 µM (inconclusive)"}
    ]},
    {"smiles": "Cc1occc1C(=O)Nc1nnc(C(F)(F)F)s1", "values": [
      {"measurement": "EC50", "setting": "[2]", "value": "1.95 µM (active)"},
      {"measurement": "EC50", "setting": "[3]", "value": "> 150 µM (inconclusive)"}
    ]},
    {"smiles": "COc1ccc(C(=O)Nc2cccc(-c3ccc(N4CCOCC4)nn3)c2)cc1", "values": [
      {"measurement": "EC50", "setting": "[6]", "value": "> 150 µM (not active)"},
      {"measurement": "EC50", "setting": "Streptococcus", "value": "> 150 µM (not active)"},
      {"measurement": "EC50", "setting": "Streptokinase A", "value": "> 150 µM (not active)"}
    ]},
    {"smiles": "CCOC(=O)C1(Cc2cccc(OC)c2)CCCN(C(=O)CCN2CCCO2)C1", "note": "(stereo unspecified)", "values": [
      {"measurement": "EC50", "setting": "[7]", "value": "9.65 µM (active)"},
      {"measurement": "EC50", "setting": "[8]", "value": "11.1 µM (active)"},
      {"measurement": "EC50", "setting": "H4", "value": "2 µM (active)"}
    ]},
    {"smiles": "CC1CC(N(C(=O)c2ccco2)c2ccccc2)c2ccccc2N1", "note": "(stereo unspecified)", "values": [
      {"measurement": "AC50", "setting": "[1]", "value": "0.465 µM (active)"}
    ]},
    {"smiles": "NC(=O)c1ccsc1NC(=O)CCS(=O)(=O)c1ccccc1", "values": [
      {"measurement": "EC50", "setting": "[2]", "value": "> 38 µM (not active)"},
      {"measurement": "EC50", "setting": "[3]", "value": "> 150 µM (inactive)"}
    ]},
    {"smiles": "CCN(CCNC(=O)c1cccc(N2CCCC2=O)c1)c1ccccc1", "values": [
      {"measurement": "AC50", "setting": "[1]", "value": "0.508 µM (active)"}
    ]},
    {"smiles": "Cc1ccc(Oc2cc(C)nc(-c3ccccc3O)n2)cc1", "values": [
      {"measurement": "EC50", "setting": "[7]", "value": "15 µM (active)"},
      {"measurement": "EC50", "setting": "[8]", "value": "12.9 µM (active)"},
      {"measurement": "EC50", "setting": "H4", "value": "44 µM (inconclusive)"}
    ]},
    {"smiles": "COc1ccc(OC(=O)c2cc3cc(Cl)ccc3oc2=O)cc1", "values": [
      {"measurement": "IC50", "setting": "cells", "value": "7.33 µM (active)"}
    ]},
    {"smiles": "CCCCNC(=O)C1CCN(Cc2ccc(OCc3ccccc3)cc2)CC1", "values": [
      {"measurement": "EC50", "setting": "[7]", "value": "70.9 µM (active)"},
      {"measurement": "EC50", "setting": "[8]", "value": "18.6 µM (active)"},
      {"measurement": "EC50", "setting": "H4", "value": "63.1 µM (active)"}
    ]},
    {"smiles": "c1ccc2c(c1)CCN(c1nc3ccccc3n3cnnc13)C2", "values": [
      {"measurement": "EC50", "setting": "[7]", "value": "26.4 µM (active)"},
      {"measurement": "EC50", "setting": "[8]", "value": "0.123 µM (active)"},
      {"measurement": "EC50", "setting": "H4", "value": "29.1 µM (active)"}
    ]},
    {"smiles": "Cc1ccc(S(=O)(=O)N(C)CC(=O)N2CC(C)OC(C)C2)cc1", "note": "(stereo unspecified)", "values": [
      {"measurement": "EC50", "setting": "[6]", "value": "> 150 µM (not active)"},
      {"measurement": "EC50", "setting": "Streptococcus", "value": "> 150 µM (not active)"},
      {"measurement": "EC50", "setting": "Streptokinase A", "value": "> 150 µM (not active)"}
    ]},
    {"smiles": "CCOc1ccccc1N1CCN(CC(O)COC2CCCc3ccccc32)CC1", "note": "(stereo unspecified)", "values": [
      {"measurement": "EC50", "setting": "[2]", "value": "1.02 µM (active)"},
      {"measurement": "EC50", "setting": "[3]", "value": "> 160 µM (inactive)"}
    ]},
    {"smiles": "COc1cc(-c2csc(CCn3nc(C)cc3C)n2)cc(OC)c1OC", "values": [
      {"measurement": "AC50", "setting": "[1]", "value": "0.059 µM (active)"}
    ]},
    {"smiles": "CCC1(C)Cc2ccccc2-c2c1c(=O)n(Cc1ccccc1)c1nnnn21", "note": "(stereo unspecified)", "values": [
      {"measurement": "EC50", "setting": "Streptococcus", "value": "> 150 µM (not active)"},
      {"measurement": "EC50", "setting": "Streptokinase A", "value": "4.04 µM (active)"}
    ]}
  ]
}
